The text below walks through data of patent US11634396B2 (priority 2021, dated 2023).

The assay addresses human mOR (Homo sapiens (Human), UniProt P35372). The assay can be described thus: cell-based. As for the experimental part:
CHO Tag-lite human mOR stable cell line from Cisbio (NCBI accession number: NM_000914.3, Bedford, Mass.) were seeded and grown to approximately 80% confluence in Ham F-12 with 10% FBS, 50 U/ml penicillin, 50 μg/ml streptomycin, 2 mM Hepes, and 1 mg/ml geneticin (Invitrogen, Carlsbad, Calif.). Cells were then harvested using accutase (Corning. Coming, N.Y.), centrifuged at 1300 RPM for 5 min, and plated at 5000 cells per 5 μL per well in a 5× dilution of stimulation buffer consisting of the HTRF cAMP Gi kit, water and IBMX at 0.5 mM (Cisbio, Bedford, Mass.) in white HTRF low volume 384 well plates (Cisbio, Bedford, Mass.). Plates were then incubated at 37° C. in 5% CO2 for 10 minutes. For the agonist assay, forskolin was added to a final concentration of 4 μM. […] Test compounds were dissolved in DMSO and water, and then serially diluted to working concentrations such that the concentration of DMSO was less than 0.1%. Diluted test compounds were added at 2.5 μL per well, and plates were incubated at 37° C., and 5% CO2 for 15 minutes, and then at room temperature for 15 minutes. Next 5 μl/well of cAMP Eu-cryptate and 5 μl/well of anti-cAMP-d2 (both diluted 1:20 in lysis buffer) were added, and plates were incubated at room temperature for 1 hour. Following incubation, plates were read in a Synergy Neo2 multi-mode reader (Biotek, Winooski, Vt.). […] For the agonist assay, data was normalized using the maximal DAMGO response. Measurements were performed in triplicate and the dose response was fit using nonlinear regression.

Where [1] appears, read: CHO Tag-lite human mOR stable cell line, forskolin 4 μM and DAMGO at EC90, read-out: mOR cAMP Antagonist Assay IC50.

The structures appear in SMILES notation. Like-named read-outs stand apart in the source and are kept apart here. A value given as a limit tells only on which side of the number the result lay.

By IC50 is commonly meant the point on the concentration scale where inhibition reaches its midpoint.

human mOR, sequence (P35372 whole entry): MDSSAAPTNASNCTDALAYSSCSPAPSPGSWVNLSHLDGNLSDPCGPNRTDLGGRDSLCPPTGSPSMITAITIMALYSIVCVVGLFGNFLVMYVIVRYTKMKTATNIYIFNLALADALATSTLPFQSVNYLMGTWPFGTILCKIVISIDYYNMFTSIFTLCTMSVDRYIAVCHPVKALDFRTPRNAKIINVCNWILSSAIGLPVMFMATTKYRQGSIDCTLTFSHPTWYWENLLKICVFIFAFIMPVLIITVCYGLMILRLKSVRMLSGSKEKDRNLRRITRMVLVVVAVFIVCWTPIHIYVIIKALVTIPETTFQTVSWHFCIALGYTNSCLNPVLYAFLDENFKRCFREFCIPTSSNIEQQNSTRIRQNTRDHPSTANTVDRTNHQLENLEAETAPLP

On to `CNC(=O)c1ccc(C[C@@H](CNC(=O)C[C@@H](c2ccncc2)C2(C(F)(F)F)CC2)N(C)C)c(Cl)c1F` (single isomer, unassigned) [Compound 111], for which the IC50 under setting [1] is below 300 nM.

With `CNC(=O)c1ccc(C[C@@H](CNC(=O)CC(c2cccnc2)C2(C(F)(F)F)CC2)N(C)C)c(Cl)c1F` (stereo in doubt) [Compound 109, 3-chloro-4-((S)-2-(dimethylamino)-3-((S)-3-(pyridin-3-yl)-3-(1-(trifluoromethyl)cyclopropyl)propanamido)propyl)-2-fluoro-N-methylbenzamide], the half-inhibitory concentration (IC50) was below 300 nM.

Take `CNC(=O)c1ccc(C[C@@H](CNC(=O)CC(c2cccnc2)C2(C(F)(F)F)CC2)N(C)C)c(C)c1F` (stereo in doubt) [Compound 124, 4-((S)-2-(dimethylamino)-3-((S)-3-(pyridin-3-yl)-3-(1-(trifluoromethyl)cyclopropyl)propanamido)propyl)-2-fluoro-N,3-dimethylbenzamide]: the IC50 is above 3000 nM.

Take `CNC(=O)c1ccc(C[C@@H](CNC(=O)CC(c2ccncc2)C2(C(F)(F)F)CC2)N(C)C)c(C)c1` (stereo in doubt) [Compound 130, 4-((S)-2-(dimethylamino)-3-((S)-3-(pyridin-4-yl)-3-(1-(trifluoromethyl)cyclopropyl)propanamido)propyl)-N,3-dimethylbenzamide]: the IC50 is below 300 nM.

As for `Cc1ncc([C@@H](CC(=O)NC[C@H](Cc2ccc(C(N)=O)c(F)c2F)N(C)C)C2(C(F)(F)F)CC2)s1` [Compound 1, 4-((S)-2-(dimethylamino)-3-((S)-3-(2-methylthiazol-5-yl)-3-(1-(trifluoromethyl)cyclopropyl)propanamido)propyl)-2,3-difluorobenzamide], the IC50 was below 300 nM.

Take `CN(C)[C@H](CNC(=O)C[C@H](c1cncs1)C1(C(F)(F)F)CC1)Cc1ccc(C(N)=O)c(F)c1F` [Compound 2, 4-((S)-2-(dimethylamino)-3-((S)-3-(thiazol-5-yl)-3-(1-(trifluoromethyl)cyclopropyl)propanamido)propyl)-2,3-difluorobenzamide]: the IC50 under setting [1] is below 300 nM.

In the case of `Cc1ncc([C@@H](CC(=O)NC[C@H](Cc2ccc(C(N)=O)c(F)c2F)N(C)C)C2(C(F)(F)F)CC2)cn1` [Compound 3, 4-((S)-2-(dimethylamino)-3-((R)-3-(2-methylpyrimidin-5-yl)-3-(1-(trifluoromethyl)cyclopropyl)propanamido)propyl)-2,3-difluorobenzamide], the IC50 is below 300 nM.

Take `Cc1ccc([C@@H](CC(=O)NC[C@H](Cc2ccc(C(N)=O)c(F)c2F)N(C)C)C2(C(F)(F)F)CC2)cn1` [Compound 4, 4-((S)-2-(dimethylamino)-3-((R)-3-(6-methylpyridin-3-yl)-3-(1-(trifluoromethyl)cyclopropyl)propanamido)propyl)-2,3-difluorobenzamide]: the concentration for half-maximal inhibition (IC50) is below 300 nM.

In the case of `CN(C)[C@H](CNC(=O)C[C@@H](c1ncc(Cl)cn1)C1(C(F)(F)F)CC1)Cc1cc(F)c(C(N)=O)cc1F` [Compound 5, 4-[(2S)-3-[(3R)-3-(5-chloropyrimidin-2-yl)-3-[1-(trifluoromethyl)cyclopropyl]propanamido]-2-(dimethylamino)propyl]-2,5-difluorobenzamide], the half-maximal inhibitory concentration (IC50) lay within 300 to 3000 nM.

`Cc1ncc([C@@H](CC(=O)NC[C@H](Cc2ccc(C(N)=O)c(F)c2Cl)N(C)C)C2(C(F)(F)F)CC2)s1` [Compound 16, 3-chloro-4-[(2S)-2-(dimethylamino)-3-[(3S)-3-(2-methyl-1,3-thiazol-5-yl)-3-[1-(trifluoromethyl)cyclopropyl]propanamido]propyl]-2-fluorobenzamide]: the IC50 is below 300 nM.

With `CN(C)[C@H](CNC(=O)CC(c1ccncc1)C1(C(F)(F)F)CC1)Cc1ccc(C(N)=O)c(F)c1Cl` (stereo partly drawn) [Compound 19, 3-chloro-4-[(2S)-2-(dimethylamino)-3-[3-(pyridin-4-yl)-3-[1-(trifluoromethyl)cyclopropyl]propanamido]propyl]-2-fluorobenzamide], the IC50 was below 300 nM.
